Experimental data from ChEMBL document CHEMBL4680201, “Design, synthesis, and pharmacological evaluation of 4- or 6-phenyl-pyrimidine derivatives as novel and selective Janus kinase 3 inhibitors” (Eur J Med Chem, 2020).
The source made the active and inactive calls. The rule behind the calls is not given here.

What was measured:
[1] = Terminal half life in ICR mouse at 30 mg/kg, po administered as single dose via gavage by LC-MS/MS analysis; assay type: ADME, organism-based; settings: in vivo, read-out: beta t1/2 (converted)
[2] = biological target: T1, Tyrosine-protein kinase JAK3 (Homo sapiens) (UniProt P52333); assay: Inhibition of recombinant human GST-tagged JAK3 catalytic domain (781 to 1124 residues) expressed in baculovirus expression system using Tyr06 peptide as substrate at 100 nM incubated for 1 hr by Z'lyte assay relative to control
T1 sequence (whole entry): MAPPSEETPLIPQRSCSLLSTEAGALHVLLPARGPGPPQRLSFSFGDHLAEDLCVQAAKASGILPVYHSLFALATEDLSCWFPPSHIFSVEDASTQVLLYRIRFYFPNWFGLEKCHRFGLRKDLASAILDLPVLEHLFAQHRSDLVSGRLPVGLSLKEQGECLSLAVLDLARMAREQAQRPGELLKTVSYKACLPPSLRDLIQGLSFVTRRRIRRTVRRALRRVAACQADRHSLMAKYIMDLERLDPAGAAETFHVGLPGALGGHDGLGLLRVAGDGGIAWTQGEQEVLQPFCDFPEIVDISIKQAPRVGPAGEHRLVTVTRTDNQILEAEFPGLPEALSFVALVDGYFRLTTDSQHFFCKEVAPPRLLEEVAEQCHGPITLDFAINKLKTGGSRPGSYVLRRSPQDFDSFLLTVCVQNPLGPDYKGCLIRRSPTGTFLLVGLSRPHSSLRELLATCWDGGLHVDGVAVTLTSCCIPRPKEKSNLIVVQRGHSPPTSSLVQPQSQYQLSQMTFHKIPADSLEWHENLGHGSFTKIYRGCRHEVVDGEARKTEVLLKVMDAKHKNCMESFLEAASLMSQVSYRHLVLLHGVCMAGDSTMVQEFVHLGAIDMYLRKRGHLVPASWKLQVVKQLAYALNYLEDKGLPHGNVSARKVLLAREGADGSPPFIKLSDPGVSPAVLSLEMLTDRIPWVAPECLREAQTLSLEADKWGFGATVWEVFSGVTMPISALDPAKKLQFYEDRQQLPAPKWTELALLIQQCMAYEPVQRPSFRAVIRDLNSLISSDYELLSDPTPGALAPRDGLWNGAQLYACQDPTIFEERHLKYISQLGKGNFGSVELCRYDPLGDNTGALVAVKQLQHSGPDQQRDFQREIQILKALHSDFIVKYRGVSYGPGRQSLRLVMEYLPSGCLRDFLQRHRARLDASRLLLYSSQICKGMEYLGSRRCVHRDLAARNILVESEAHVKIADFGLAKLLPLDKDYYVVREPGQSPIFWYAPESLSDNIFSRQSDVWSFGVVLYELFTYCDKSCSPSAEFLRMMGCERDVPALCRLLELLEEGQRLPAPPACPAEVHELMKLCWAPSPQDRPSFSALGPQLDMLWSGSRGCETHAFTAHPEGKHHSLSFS

[3] = AUC (0 to infinity) in ICR mouse at 30 mg/kg, po administered as single dose via gavage by LC-MS/MS analysis; assay type: ADME, organism-based; design: time infinity, route oral, dose 30 mg/kg; settings: in vivo
[4] = AUC (0 to infinity) in ICR mouse at 10 mg/kg, iv administered as single dose by LC-MS/MS analysis; assay type: ADME, organism-based; design: route intravenous, time infinity, dose 10 mg/kg; settings: in vivo
[5] = biological target: TEK (Angiopoietin-1 receptor) (Homo sapiens, UniProt Q02763); assay: Inhibition of recombinant human GST-tagged TEK (817 to 1101 residues) expressed in baculovirus expression system at 100 nM using Tyr 05 as substrate incubated for 1 hr in presence of ATP by Z'-LYTE assay relative to control; settings: probe Tyr 05
Sequence of TEK (Angiopoietin-1 receptor) (Q02763 whole entry, the tested form may be a part): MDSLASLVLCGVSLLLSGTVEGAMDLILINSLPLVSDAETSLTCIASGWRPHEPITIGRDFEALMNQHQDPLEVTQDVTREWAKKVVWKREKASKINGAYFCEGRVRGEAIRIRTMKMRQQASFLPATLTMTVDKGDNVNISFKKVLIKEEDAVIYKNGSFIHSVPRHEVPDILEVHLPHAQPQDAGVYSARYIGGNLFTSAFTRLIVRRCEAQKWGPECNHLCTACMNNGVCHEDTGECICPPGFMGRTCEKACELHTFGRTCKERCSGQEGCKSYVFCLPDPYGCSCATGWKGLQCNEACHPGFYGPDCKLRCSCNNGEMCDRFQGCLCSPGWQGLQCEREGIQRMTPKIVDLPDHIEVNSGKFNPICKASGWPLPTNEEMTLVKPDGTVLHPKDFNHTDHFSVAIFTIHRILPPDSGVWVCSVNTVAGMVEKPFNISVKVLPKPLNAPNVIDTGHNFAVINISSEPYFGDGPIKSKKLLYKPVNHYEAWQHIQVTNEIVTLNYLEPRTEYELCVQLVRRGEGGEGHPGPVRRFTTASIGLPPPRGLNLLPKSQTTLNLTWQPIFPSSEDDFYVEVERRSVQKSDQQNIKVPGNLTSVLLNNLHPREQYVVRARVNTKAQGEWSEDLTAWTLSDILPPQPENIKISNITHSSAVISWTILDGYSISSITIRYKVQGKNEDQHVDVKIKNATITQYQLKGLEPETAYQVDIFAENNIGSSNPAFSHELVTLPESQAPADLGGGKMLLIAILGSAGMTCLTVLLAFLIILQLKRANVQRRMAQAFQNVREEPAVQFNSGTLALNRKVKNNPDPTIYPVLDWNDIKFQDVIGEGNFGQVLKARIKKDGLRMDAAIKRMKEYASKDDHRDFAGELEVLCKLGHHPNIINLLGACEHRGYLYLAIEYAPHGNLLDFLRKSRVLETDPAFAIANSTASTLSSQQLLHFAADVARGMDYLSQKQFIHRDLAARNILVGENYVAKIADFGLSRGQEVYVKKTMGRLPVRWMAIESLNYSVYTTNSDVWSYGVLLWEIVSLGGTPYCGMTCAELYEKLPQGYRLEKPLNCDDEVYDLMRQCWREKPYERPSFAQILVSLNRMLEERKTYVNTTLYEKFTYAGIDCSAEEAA

[6] = biological target: T2, ITK (Tyrosine-protein kinase ITK/TSK) (Homo sapiens, UniProt Q08881); assay: Inhibition of recombinant human GST-tagged full length ITK expressed in baculovirus expression system at 100 nM using Tyr01 peptide as substrate incubated for 1 hr by Z'lyte assay relative to control; settings: probe Tyr01 peptide
T2 sequence (Q08881 whole entry): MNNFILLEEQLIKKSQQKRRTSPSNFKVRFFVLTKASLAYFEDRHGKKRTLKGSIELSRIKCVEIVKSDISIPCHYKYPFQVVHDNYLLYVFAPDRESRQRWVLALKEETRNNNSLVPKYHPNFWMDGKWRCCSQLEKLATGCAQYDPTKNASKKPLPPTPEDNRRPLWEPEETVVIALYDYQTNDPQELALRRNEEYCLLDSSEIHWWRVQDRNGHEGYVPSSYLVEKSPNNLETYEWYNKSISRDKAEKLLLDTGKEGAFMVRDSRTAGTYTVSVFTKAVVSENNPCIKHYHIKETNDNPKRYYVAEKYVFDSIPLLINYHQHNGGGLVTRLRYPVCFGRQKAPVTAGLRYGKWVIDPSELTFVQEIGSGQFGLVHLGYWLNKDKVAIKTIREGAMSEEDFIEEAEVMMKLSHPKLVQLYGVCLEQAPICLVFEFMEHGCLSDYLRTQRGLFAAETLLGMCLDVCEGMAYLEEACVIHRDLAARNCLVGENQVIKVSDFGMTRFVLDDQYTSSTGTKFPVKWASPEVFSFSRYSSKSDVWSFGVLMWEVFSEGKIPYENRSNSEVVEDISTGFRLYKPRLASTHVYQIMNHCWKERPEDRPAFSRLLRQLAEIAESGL

[7] = biological target: ERBB4 (Receptor tyrosine-protein kinase erbB-4) (Homo sapiens, UniProt Q15303); assay: Inhibition of recombinant human N-terminal GST-tagged ERBB4 catalytic domain (708 to 993 residues) expressed in baculovirus expression system at 100 nM using tyrosine-1 peptide as substrate incubated for 60 mins in presence of ATP by Z'-LYTE assay relative to control; settings: probe tyrosine-1 peptide
Sequence of ERBB4 (Receptor tyrosine-protein kinase erbB-4) (Q15303 whole entry, the tested form may be a part): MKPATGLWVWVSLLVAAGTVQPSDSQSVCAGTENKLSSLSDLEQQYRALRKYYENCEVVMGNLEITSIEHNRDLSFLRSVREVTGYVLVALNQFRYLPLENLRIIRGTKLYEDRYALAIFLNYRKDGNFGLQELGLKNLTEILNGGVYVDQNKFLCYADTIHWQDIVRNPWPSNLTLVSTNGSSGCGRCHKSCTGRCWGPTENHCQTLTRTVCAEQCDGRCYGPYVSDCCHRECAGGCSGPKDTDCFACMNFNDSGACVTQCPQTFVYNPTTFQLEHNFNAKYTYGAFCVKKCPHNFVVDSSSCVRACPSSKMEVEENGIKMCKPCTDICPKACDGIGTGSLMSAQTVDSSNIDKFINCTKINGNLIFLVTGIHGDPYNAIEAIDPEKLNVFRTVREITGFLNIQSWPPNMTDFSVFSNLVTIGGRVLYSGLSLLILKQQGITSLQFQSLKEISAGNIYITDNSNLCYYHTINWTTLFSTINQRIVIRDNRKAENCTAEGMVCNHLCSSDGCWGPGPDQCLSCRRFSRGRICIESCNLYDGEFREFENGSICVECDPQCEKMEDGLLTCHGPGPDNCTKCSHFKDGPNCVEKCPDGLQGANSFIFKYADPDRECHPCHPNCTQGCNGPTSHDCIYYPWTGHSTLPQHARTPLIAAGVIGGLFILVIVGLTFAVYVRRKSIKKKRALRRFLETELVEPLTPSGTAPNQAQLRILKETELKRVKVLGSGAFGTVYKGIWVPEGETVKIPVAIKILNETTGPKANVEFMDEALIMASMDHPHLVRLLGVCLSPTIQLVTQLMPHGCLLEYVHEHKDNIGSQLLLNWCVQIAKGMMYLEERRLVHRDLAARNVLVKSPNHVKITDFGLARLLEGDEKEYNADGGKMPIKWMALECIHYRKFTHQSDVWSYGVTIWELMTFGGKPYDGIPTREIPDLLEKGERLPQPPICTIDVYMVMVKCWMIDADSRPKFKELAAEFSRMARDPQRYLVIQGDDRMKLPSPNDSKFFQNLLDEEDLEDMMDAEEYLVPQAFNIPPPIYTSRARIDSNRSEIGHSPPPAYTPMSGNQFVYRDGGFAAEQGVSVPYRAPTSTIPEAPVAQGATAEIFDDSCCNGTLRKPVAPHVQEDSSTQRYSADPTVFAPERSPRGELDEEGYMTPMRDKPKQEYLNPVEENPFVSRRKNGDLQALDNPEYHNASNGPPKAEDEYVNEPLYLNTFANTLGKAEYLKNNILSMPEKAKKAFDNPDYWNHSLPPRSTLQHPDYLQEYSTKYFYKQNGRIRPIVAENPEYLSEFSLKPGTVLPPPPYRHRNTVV

[8] = AUC (0 to t) in ICR mouse at 10 mg/kg, iv administered as single dose by LC-MS/MS analysis; assay type: ADME, organism-based; design: dose 10 mg/kg; settings: in vivo
[9] = Toxicity in Balb/c mouse model of oxazolone-induced delayed type hypersensitivity assessed as change in microscopic examination up to 30 mg/kg, po; assay type: organism-based; settings: in vivo
[10] = tested on: Mus musculus; assay: Immunosuppressive activity in Balb/c mouse model of oxazolone-induced delayed type hypersensitivity assessed as reduction in neutrophil leukocyte infiltration at 30 mg/kg, po measured after 7 days by H and E staining based histopathological analysis; assay type: functional, organism-based; settings: time 7.0 day
[11] = AUC (0 to t) in ICR mouse at 30 mg/kg, po administered as single dose via gavage by LC-MS/MS analysis; assay type: ADME, organism-based; design: dose 30 mg/kg; settings: in vivo

half-life [1]: 1.52 h | inhibition [2]: 100% | AUC [3]: 897.12 ng·h/mL | AUC(0-inf) [4]: 1270 ng·h/mL | inhibition at 1 h, 0.1 µM [5]: 29.5% | inhibition at 1 h, 0.1 µM [6]: 2.3% | inhibition at 1 h, 0.1 µM [7]: 8% | AUC(0-t) [8]: 1240 ng·h/mL | AUC(0-t) [11]: 889 ng·h/mL
SMILES: C=CC(=O)Nc1ccc(-c2ccnc(Nc3ccc(N4CCOCC4)cc3)n2)cc1
Activity [9]: Non-Toxic | Activity [10]: Active
